The values below come from US20230159453A1 (COCRYSTAL PHARMA, INC., priority 2020, published 2023).

SMILES strings stand for the structures.

One assay concerns the target SARS2 protease (Severe acute respiratory syndrome coronavirus 2, UniProt P0DTD1). The experiment in a line: SARS-CoV-2 protease inhibition assay (SARS2 FRET protease assay). In kind it is biochemical. Particulars: IC50 (μM).
By IC50 is commonly meant the concentration that inhibits the measured activity by half. The compound `CC(C)C[C@H](NC(=O)OC1CCCC1Cc1ccccc1)C(=O)N[C@@H](C[C@@H]1CCNC1=O)C(=O)CCl` (stereo partly drawn) [Compound C199, 2-Benzylcyclopentyl ((S)-1-(((S)-4-chloro-3-oxo-1-((S)-2-oxopyrrolidin-3-yl)butan-2-yl)amino)-4-methyl-1-oxopentan-2-yl)carbamate] registered a 50% inhibitory concentration (IC50) of 0.196 µM.

The same assay, now with this note: SARS-CoV-2 protease 25 nM, FRET, peptide substrate 1.3 μM, 30 minutes at 30° C., compounds 20 μM to 1.0 nM; read-out: IC50.
`CC(C)(c1cccc(Cl)c1)C(OC(=O)N[C@@H](CC1CCCCC1)C(=O)N[C@@H](C[C@@H]1CCNC1=O)C(=O)C(=O)NC1CC1)c1ccccc1Cl` (stereo partly drawn) [Compound C186, 1-(2-Chlorophenyl)-2-(3-chlorophenyl)-2-methylpropyl ((S)-3-cyclohexyl-1-(((S)-4-(cyclopropylamino)-3,4-dioxo-1-((S)-2-oxopyrrolidin-3-yl)butan-2-yl)amino)-1-oxopropan-2-yl) carbamate]: the half-inhibitory concentration (IC50) came out at 1.24 µM.

Consider `CC(C)C[C@H](NC(=O)OC(c1cccc(Cl)c1)C1(c2cccc(Cl)c2)CC1)C(=O)N[C@@H](C[C@@H]1CCNC1=O)C(=O)C(=O)NC1CC1` (stereo partly drawn) [Compound C187, (3-chlorophenyl)(1-(3-chlorophenyl)cyclopropyl)methyl ((S)-1-(((S)-4-(cyclopropylamino)-3,4-dioxo-1-((S)-2-oxopyrrolidin-3-yl)butan-2-yl)amino)-4-methyl-1-oxopentan-2-yl)carbamate], for which the IC50 was 0.109 µM.

For `CC(C)(C)C(=O)N1CCC2(CC1)CC(CC(NC(=O)[C@H](CC1CCCCC1)NC(=O)OCc1cccc(Cl)c1)C(=O)C(=O)NC1CC1)C(=O)N2` (stereo partly drawn) [Compound C188, 3-Chlorobenzyl ((2S)-3-cyclohexyl-1-((4-(cyclopropylamino)-3,4-dioxo-1-(2-oxo-8-pivaloyl-1,8-diazaspiro[4.5]decan-3-yl)butan-2-yl)amino)-1-oxopropan-2-yl)carbamate], the IC50 came to 1.89 µM.

`CS(=O)(=O)N1CCC2(CC1)CC(CC(C=O)NC(=O)[C@H](CC1CCCCC1)NC(=O)OC1CCCC1Cc1cccc(Cl)c1)C(=O)N2` (stereo partly drawn) [Compound C189, 2-(3-Chlorobenzyl)cyclopentyl ((2S)-3-cyclohexyl-1-((1-(8-(methylsulfonyl)-2-oxo-1,8-diazaspiro[4.5]decan-3-yl)-3-oxopropan-2-yl)amino)-1-oxopropan-2-yl)carbamate]: the IC50 is 0.34 µM.

Regarding `COc1cccc2[nH]c(C(=O)N[C@@H](CC3CCCCC3)C(=O)NC(CC3CC4(CCOCC4)NC3=O)C(=O)C(=O)NC3CC3)cc12` (stereo partly drawn) [Compound C191, N-((2S)-3-Cyclohexyl-1-((4-(cyclopropylamino)-3,4-dioxo-1-(2-oxo-8-oxa-1-azaspiro[4.5]decan-3-yl)butan-2-yl)amino)-1-oxopropan-2-yl)-4-methoxy-1H-indole-2-carboxamide], the IC50 was determined as 0.305 µM.

On to `O=C(N[C@@H](CC1CCCCC1)C(=O)NC(CC1CC2(CCCCC2)NC1=O)C(=O)C(=O)NC1CC1)OC1CCCC1Cc1cccc(Cl)c1` (stereo partly drawn) [Compound C192, 2-(3-Chlorobenzyl)cyclopentyl ((2S)-3-cyclohexyl-1-((4-(cyclopropylamino)-3,4-dioxo-1-(2-oxo-1-azaspiro[4.5]decan-3-yl)butan-2-yl)amino)-1-oxopropan-2-yl)carbamate], for which the IC50 was determined as 0.617 µM.

With `COc1cccc2[nH]c(C(=O)N[C@@H](CC3CCCCC3)C(=O)NC(C=O)CC3CC4(CCCCC4)NC3=O)cc12` (stereo partly drawn) [Compound C193, N-((2S)-3-Cyclohexyl-1-oxo-1-((1-oxo-3-(2-oxo-1-azaspiro[4.5]decan-3-yl)propan-2-yl)amino)propan-2-yl)-4-methoxy-1H-indole-2-carboxamide], the IC50 is 0.0007 µM.

Take `CC(C)C[C@H](NC(=O)OC1(Cc2ccccc2)CCC1)C(=O)N[C@@H](C[C@@H]1CCNC1=O)C(=O)CCl` [Compound C194, 1-Benzylcyclobutyl ((S)-1-(((S)-4-chloro-3-oxo-1-((S)-2-oxopyrrolidin-3-yl)butan-2-yl)amino)-4-methyl-1-oxopentan-2-yl) carbamate]: the half-inhibitory concentration (IC50) was determined as 0.485 µM.

`O=C(N[C@@H](CC1CCCCC1)C(=O)NC(CC1CC2(CCCCC2)NC1=O)C(=O)C(=O)NC1CC1)OC(Cc1cccc(Cl)c1)c1cccc(Cl)c1` (stereo partly drawn) [Compound C195, 1,2-Bis(3-chlorophenyl)ethyl ((2S)-3-cyclohexyl-1-((4-(cyclopropylamino)-3,4-dioxo-1-(2-oxo-1-azaspiro[4.5]decan-3-yl)butan-2-yl)amino)-1-oxopropan-2-yl)carbamate]: the IC50 came to 2.01 µM.

Consider `CC(C)C[C@H](NC(=O)OC1CCCC1Cc1cccc(Cl)c1)C(=O)N[C@@H](C[C@@H]1CCNC1=O)C(=O)C(=O)NC1CC1` (stereo partly drawn) [Compound C196, 2-(3-Chlorobenzyl)cyclopentyl ((S)-1-(((S)-4-(cyclopropylamino)-3,4-dioxo-1-((S)-2-oxopyrrolidin-3-yl)butan-2-yl)amino)-4-methyl-1-oxopentan-2-yl)carbamate], for which the concentration for half-maximal inhibition (IC50) was 0.108 µM.

Consider `O=C(N[C@@H](CC1CCCCC1)C(=O)N[C@@H](CC1CC2(CCCCC2)NC1=O)C(=O)CCl)OCc1cccc(Cl)c1` (stereo partly drawn) [Compound C197, 3-Chlorobenzyl ((2S)-1-(((2S)-4-chloro-3-oxo-1-(2-oxo-1-azaspiro[4.5]decan-3-yl)butan-2-yl)amino)-3-cyclohexyl-1-oxopropan-2-yl)carbamate], for which the IC50 is 0.62 µM.

As for `CC1(C)CC(CC(C=O)NC(=O)[C@H](CC2CCCCC2)NC(=O)OCc2cccc(Cl)c2)C(=O)N1` (stereo partly drawn) [Compound C198, 3-chlorobenzyl ((2S)-3-cyclohexyl-1-((1-(5,5-dimethyl-2-oxopyrrolidin-3-yl)-3-oxopropan-2-yl)amino)-1-oxopropan-2-yl)carbamate], the IC50 is 0.0047 µM.

Regarding `O=C[C@H](CC1CC2(CCOCC2)NC1=O)NC(=O)[C@H](CC1CCCCC1)NC(=O)OCc1cccc(Cl)c1` (stereo partly drawn) [Compound C200, 3-Chlorobenzyl ((2S)-3-cyclohexyl-1-oxo-1-(((2S)-1-oxo-3-(2-oxo-8-oxa-1-azaspiro[4.5]decan-3-yl)propan-2-yl)amino)propan-2-yl)carbamate], the IC50 came to 0.00065 µM.

On to `CC(C)C[C@H](NC(=O)OC(c1ccc(Cl)cc1)C1(c2cccc(Cl)c2)CC1)C(=O)N[C@@H](C[C@@H]1CCNC1=O)C(=O)C(=O)NC1CC1` (stereo partly drawn) [Compound C201, (4-Chlorophenyl)(1-(3-chlorophenyl)cyclopropyl) methyl ((S)-1-(((S)-4-(cyclopropylamino)-3,4-dioxo-1-((S)-2-oxopyrrolidin-3-yl)butan-2-yl)amino)-4-methyl-1-oxopentan-2-yl) carbamate], for which the half-maximal inhibitory concentration (IC50) worked out at 0.0044 µM.

On to `CC(C)(C)C(=O)N1CCC2(CC1)CC(CC(C=O)NC(=O)[C@H](CC1CCCCC1)NC(=O)OC1CCCC1Cc1cccc(Cl)c1)C(=O)N2` (stereo partly drawn) [Compound C202, 2-(3-Chlorobenzyl) cyclopentyl ((2S)-3-cyclohexyl-1-oxo-1-((1-oxo-3-(2-oxo-8-pivaloyl-1,8-diazaspiro[4.5]decan-3-yl)propan-2-yl)amino)propan-2-yl)carbamate], for which the 50% inhibitory concentration (IC50) was determined as 0.644 µM.

In the case of `CC(C)C[C@H](NC(=O)OC(c1cccc(Cl)c1)C1(c2cccc(Cl)c2)CC1)C(=O)N[C@H](C=O)C[C@@H]1CCNC1=O` (stereo partly drawn) [Compound C203, (3-chlorophenyl)(1-(3-chlorophenyl)cyclopropyl)methyl ((S)-4-methyl-1-oxo-1-(((S)-1-oxo-3-((S)-2-oxopyrrolidin-3-yl)propan-2-yl)amino)pentan-2-yl)carbamate], the concentration for half-maximal inhibition (IC50) is 0.0105 µM.

On to `CC(C)C[C@H](NC(=O)OC1(Cc2cccc(Cl)c2)CCC1)C(=O)NC(C=O)CC1CC2(CCOCC2)NC1=O` (stereo partly drawn) [Compound C204], for which the half-maximal inhibitory concentration (IC50) was 0.224 µM.

As to `CC1(C)CC(CC(NC(=O)[C@H](CC2CCCCC2)NC(=O)OC(c2cccc(F)c2)C(C)(C)c2cccc(Cl)c2)C(=O)C(=O)NC2CC2)C(=O)N1` (stereo partly drawn) [Compound C205, 2-(3-Chlorophenyl)-1-(3-fluorophenyl)-2-methylpropyl ((2S)-3-cyclohexyl-1-((4-(cyclopropylamino)-1-(5,5-dimethyl-2-oxopyrrolidin-3-yl)-3,4-dioxobutan-2-yl)amino)-1-oxopropan-2-yl)carbamate], the half-inhibitory concentration (IC50) was determined as 2.56 µM.

On to `O=C(N[C@@H](CC1CCCCC1)C(=O)NC(CC1CC2(CCOCC2)NC1=O)C(=O)C(=O)NC1CC1)OC1CCCC1Cc1cccc(Cl)c1` (stereo partly drawn) [Compound C206, 2-(3-Chlorobenzyl)cyclopentyl ((2S)-3-cyclohexyl-1-((4-(cyclopropylamino)-3,4-dioxo-1-(2-oxo-8-oxa-1-azaspiro[4.5]decan-3-yl)butan-2-yl)amino)-1-oxopropan-2-yl)carbamate], for which the IC50 was found to be 5.11 µM.

On to `CC(C)C[C@H](NC(=O)OC(c1ccccc1)C(C)(C)c1cccc(Cl)c1)C(=O)N[C@@H](C[C@@H]1CCNC1=O)C(=O)C(N)=O` (stereo partly drawn) [Compound C207, 2-(3-Chlorophenyl)-2-methyl-1-phenylpropyl ((S)-1-(((S)-4-amino-3,4-dioxo-1-((S)-2-oxopyrrolidin-3-yl)butan-2-yl)amino)-4-methyl-1-oxopentan-2-yl)carbamate], for which the IC50 worked out at 0.315 µM.

Consider `CC(C)C[C@H](NC(=O)OC(c1ccccc1)C(C)(C)c1cccc(Cl)c1)C(=O)N[C@@H](C[C@@H]1CCNC1=O)C(=O)CCl` (stereo partly drawn) [Compound C209, 2-(3-Chlorophenyl)-2-methyl-1-phenylpropyl ((S)-1-(((S)-4-chloro-3-oxo-1-((S)-2-oxopyrrolidin-3-yl)butan-2-yl)amino)-4-methyl-1-oxopentan-2-yl)carbamate], for which the half-maximal inhibitory concentration (IC50) was determined as 1.87 µM.

For `CC(C)(C)C(=O)N1CCC2(CC1)CC(CC(NC(=O)[C@H](CC1CCCCC1)NC(=O)OC1CCCC1Cc1cccc(Cl)c1)C(=O)C(=O)NC1CC1)C(=O)N2` (stereo partly drawn) [Compound C210, 2-(3-Chlorobenzyl) cyclopentyl ((2S)-3-cyclohexyl-1-((4-(cyclopropylamino)-3,4-dioxo-1-(2-oxo-8-pivaloyl-1,8-diazaspiro[4.5]decan-3-yl)butan-2-yl)amino)-1-oxopropan-2-yl) carbamate], the IC50 was 2.65 µM.

With `CCNC(=O)C(=O)[C@H](C[C@@H]1CCNC1=O)NC(=O)[C@H](CC1CCCCC1)NC(=O)OC(c1ccccc1)C(C)(C)c1cccc(Cl)c1` (stereo partly drawn) [Compound C211, 2-(3-Chlorophenyl)-2-methyl-1-phenylpropyl ((S)-3-cyclohexyl-1-(((S)-4-(ethylamino)-3,4-dioxo-1-((S)-2-oxopyrrolidin-3-yl)butan-2-yl)amino)-1-oxopropan-2-yl) carbamate], the half-maximal inhibitory concentration (IC50) was 0.339 µM.
